Earlier results in article PMC7529705 (Biochemistry, 2020).
“Also recorded” adds a separate entry of the source. Where no end group is shown, it is not given here. me2a = asymmetric dimethylation (Arg)

Test system: WDR5
Conditions: previously reported

H3R2me2a: Histone H3 1–7aa peptide, asymmetrically dimethylated at Arg2 (AR(me2a)TKQTA; UniProt P68431 2-8, looked up, fragment)
Interaction with WDR5: not to interact; also recorded: does not interact
